Literature values in patent US20160296627A1, “INTRACAMERAL IMPLANT FOR TREATMENT OF AN OCULAR CONDITION” (Envisia Therapeutics Inc., priority 2013, published 2016).

Target: Cloned Human Ciliary Body FP Prostaglandin Receptor (Homo sapiens, UniProt P43088)
Conditions: Sharif et al. 2002, read-out: Functional Potency, EC50

Sequence of Cloned Human Ciliary Body FP Prostaglandin Receptor (P43088 whole entry): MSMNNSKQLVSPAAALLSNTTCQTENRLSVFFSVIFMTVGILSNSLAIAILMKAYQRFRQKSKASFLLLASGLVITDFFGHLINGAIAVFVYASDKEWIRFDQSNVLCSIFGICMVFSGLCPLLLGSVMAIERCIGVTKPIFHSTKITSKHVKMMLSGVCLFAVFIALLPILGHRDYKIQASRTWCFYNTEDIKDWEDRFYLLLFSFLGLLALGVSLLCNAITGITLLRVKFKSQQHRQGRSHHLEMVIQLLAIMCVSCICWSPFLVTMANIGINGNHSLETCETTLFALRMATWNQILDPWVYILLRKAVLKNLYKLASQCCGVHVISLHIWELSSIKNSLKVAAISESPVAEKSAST

Row | EC50 | SMILES
1 | 694 nM | CCNC(=O)CCC/C=C\C[C@@H]1[C@@H](/C=C/[C@@H](O)CCc2ccccc2)[C@H](O)C[C@@H]1O [Bimatoprost]
2 | 54.6 nM | O=C(O)CCC/C=C\C[C@@H]1[C@@H](CC[C@@H](O)CCc2ccccc2)[C@H](O)C[C@@H]1O [Latanoprost acid]
3 | 126 nM | CC(C)OC(=O)CCC/C=C\C[C@@H]1[C@@H](CC[C@@H](O)CCc2ccccc2)[C@H](O)C[C@@H]1O [Latanoprost]
4 | 3.2 nM | O=C(O)CCCC=CCC1C(O)CC(O)C1C=CC(O)COc1cccc(C(F)(F)F)c1 (stereo not drawn) [Travoprost acid]
5 | 42.3 nM | CC(C)OC(=O)CCC/C=C\C[C@@H]1[C@@H](/C=C/[C@@H](O)COc2cccc(C(F)(F)F)c2)[C@H](O)C[C@@H]1O [Travoprost, propan-2-yl 7-[3,5-dihydroxy-2-[3-hydroxy-4-[3-(trifluoromethyl)phenoxy]-but-1-enyl]-cyclopentyl]hept-5-enoate]

Row | SMILES | EC50
6 | O=C(O)CCC/C=C\C[C@@H]1[C@@H](/C=C/[C@@H](O)CCc2ccccc2)[C@H](O)C[C@@H]1O [Bimatoprost acid] | 5.8 nM
